Measured values as given in publication PMC3034247 (Cell metabolism, 2010).
Positions count from the first letter of the chain named.

What was measured:
Assay in all cases: [3H]cholesterol saturation binding, Ni-NTA capture, scintillation counting
[1] = target: T1, NPC2 (NPC2-His10) (Homo sapiens, UniProt P61916, V81A)
T1 sequence (P61916 20-151 V81A): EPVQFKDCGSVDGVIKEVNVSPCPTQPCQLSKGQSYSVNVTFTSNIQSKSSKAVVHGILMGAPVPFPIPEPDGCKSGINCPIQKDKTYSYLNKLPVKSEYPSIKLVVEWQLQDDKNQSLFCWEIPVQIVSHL

[2] = target: T2, NPC2 (NPC2-His10) (Homo sapiens, UniProt P61916)
T2 sequence (P61916 20-151): T1 sequence (P61916 20-151 V81A) with A62V

[3] = target: T3, NPC2 (NPC2-His10) (Homo sapiens, UniProt P61916, V81D)
T3 sequence (P61916 20-151 V81D): T1 sequence (P61916 20-151 V81A) with A62D

- Kd [1]: 80 nM
- Kd [2]: 81 nM
- Kd [3]: 72 nM
SMILES: CC(C)CCC[C@@H](C)[C@H]1CC[C@H]2[C@@H]3CC=C4C[C@@H](O)CC[C@]4(C)[C@H]3CC[C@]12C [cholesterol]
